Data taken from patent US20030153621A1, “Use of 13-hode as a regulator of vascular biocompatibility and an inhibitor of cell hyperplasia” (priority 2000, published 2003).
Like-named read-outs stand apart in the source and are kept apart here. Each block holds one compound with its values, some of them ahead of it.

Key:
[1] = Vessel wall 13-HODE levels in rabbits after oral 13-HODE; assay type: in vivo, New Zealand white rabbits
Protocol: (§1) New Zealand white rabbits (half males/half females; 2.5-2.9 kg) were used throughout. Rabbits were treated with 100, 400 or 1000 μg/kg/day of purified 13-HODE suspended in corn oil or ethyl-eicosapentaenoic acid (EPA), or with an equivolume of either suspending vehicle (total volume 1 ml) for 7 days. Serial blood samples were collected before, during and after treatment to assess the levels of 13-HODE in plasma. On day 7, the treatments were stopped. At that time, the rabbits were anaesthetised with a combination of Atravet, Ketamine, Vetrepham and glycopyrolate, given subcutaneously. Both carotid arteries of anaesthetised rabbits were isolated between 2 temporary ligatures, first by applying the proximal ligature, then allowing the blood to drain from the segment, and then applying the distal ligature. A 24-gauge angiocath attached to tubing filled with sterile saline and connected to a pressure manometer, was inserted into the isolated segment. Then the segment was filled with the saline to a pressure of 600 mm Hg which was maintained for 5 minutes. The pressure was relieved, and the angiocath and ligatures were removed, thereby allowing for blood flow restoration. Cessation of bleeding from the needle puncture site was achieved within 3 minutes without any manual manipulation. The incisions were sutured closed with 000 proline. […]

[2] = test system: VW intimal hyperplasia of injured carotid arteries; test: Intimal hyperplasia after carotid artery pressure injury in rabbits; assay type: in vivo, New Zealand white rabbits; details: for intimal hyperplasia: 1,000 μg/kg/day for 7 days
Protocol: (§2) New Zealand white rabbits (half males/half females; 2.5-2.9 kg) were used throughout. Rabbits were treated with 100, 400 or 1000 μg/kg/day of purified 13-HODE suspended in corn oil or ethyl-eicosapentaenoic acid (EPA), or with an equivolume of either suspending vehicle (total volume 1 ml) for 7 days. Serial blood samples were collected before, during and after treatment to assess the levels of 13-HODE in plasma. On day 7, the treatments were stopped. At that time, the rabbits were anaesthetised with a combination of Atravet, Ketamine, Vetrepham and glycopyrolate, given subcutaneously. Both carotid arteries of anaesthetised rabbits were isolated between 2 temporary ligatures, first by applying the proximal ligature, then allowing the blood to drain from the segment, and then applying the distal ligature. A 24-gauge angiocath attached to tubing filled with sterile saline and connected to a pressure manometer, was inserted into the isolated segment. Then the segment was filled with the saline to a pressure of 600 mm Hg which was maintained for 5 minutes. The pressure was relieved, and the angiocath and ligatures were removed, thereby allowing for blood flow restoration. Cessation of bleeding from the needle puncture site was achieved within 3 minutes without any manual manipulation. The incisions were sutured closed with 000 proline. The rabbits were injected intramuscularly with Temgesic to minimize any pain and with 12.5 mg Baytril as an antibiotic, and then allowed to recover. This injury procedure results in endothelial denudation and the exposure of a thrombogenic surface within 1 hour of restoration of blood flow, followed by SMC proliferation and intimal hyperplasia, which plateaus at 4 weeks and which is sustained for ±12 weeks (Buchanan MR, Brister SJ: 1998; Buchanan MR et al. 1999).
(§3) Two, four or twelve weeks later, the rabbits were re-anaesthetised and their injured carotid arteries were again isolated. Segments of injured and uninjured carotid artery were harvested and processed histologically to assess VW hyperplasia. Other VW segments and blood samples were collected and processed for VW and plasma 13-HODE levels.

[3] = Observation of hemorrhagic defect in the experimental animals; assay type: in vivo, rabbits; details: any of the experimental animals
Protocol: as §1

[4] = Plasma 13-HODE levels in rabbits after oral 13-HODE; assay type: in vivo, New Zealand white rabbits
Protocol: as §2, §3

[5] = Stability of 13-HODE in dosage forms (oil or ester carrier); assay type: physicochemical; details: dissolved in a triglyceride oil carrier or an ester
Protocol: A real problem is presented by the fact that active daily doses of 13-HODE are in the 50 to 1,000 μg/kg/day range. […] That translates into a […] dose for a 70 kg person. Since doses for humans are often considerably lower than doses for animals because of a weight/body surface area scaling, a daily dose of as little as 5 mg or less is really possible. Formulating an oily liquid is such small doses is a problem. It could be absorbed into tabletting materials and tabletted and coated, or micro-encapsulated by methods well known to those skilled in the art. […] Other triglyceride oils such as vegetable oil, including sunflower, safflower, soy, evening primrose, borage, coconut or palm oil, or cottonseed, rapeseed, olive, fish body or fish liver oils may all be used for this purpose. Particualrly useful esters for this purpose are esters of fatty acids with 16-26 carbon atoms and one or more double bonds in the chain.

[6] = 3.2 gm daily (20 capsules) for 30 days; cited from earlier work
[7] = test system: Platelet/injured VW interactions; details: 3.2 gm daily for 30 days; cited from earlier work
[8] = human, in vivo; cited from earlier work
[9] = test system: Platelet/injured VW interactions; details: dose comparable to that used clinically; cited from earlier work
intimal SMC hyperplasia = details: cited from earlier work
[10] = dose comparable to that used clinically; cited from earlier work
Sarcoma 180 tumors = details: given orally; cited from earlier work
[11] = suspended in ethyl-EPA, all treatment levels

VW 13-HODE levels ([1]; suspended in corn oil, measured 28 days after stopping the treatment): dose-related increase
absolute levels of VW 13-HODE versus corn oil vehicle [1, 11]: somewhat lower
hemorrhagic defect [3]: no detectable hemorrhagic defect
increase in the plasma 13-HODE levels ([4]; 100 μg/kg/day oral, 7 days, suspended in corn oil): three-fold
time to significantly elevated 13-HODE level in cell-free plasma ([4]; 1,000 μg/kg/day oral): ≤ 3 days
effect of increasing the dose on plasma 13-HODE levels ([4]; 1,000 μg/kg/day vs 100 μg/kg/day, corn oil): no further effect
time 13-HODE level in cell-free plasma remained elevated ([4]; 1,000 μg/kg/day, treatment stopped after 7 days): 4 weeks
time for plasma 13-HODE levels to return to almost control levels ([4]; after 7 day oral treatment, corn oil): 14 to 21 days
absolute levels of plasma 13-HODE versus corn oil vehicle [4, 11]: lower
stability of dosage form [5]: stable without degradation
Compound: CCCCCC(O)/C=C/C=C\CCCCCCCC(=O)O (stereo not shown) [13-HODE, 13-hydroxyoctadeca-9Z, 11E-dienoic acid]
intimal VW hyperplasia ([2]; 100 μg/kg/day for 7 days, in corn oil or ethyl-EPA, p<0.001): significantly inhibited
intimal hyperplasia ([2]; 2 weeks after injury, placebo 18%): 8%
intimal hyperplasia ([2]; 4 weeks after injury, placebo 38%): 16%
intimal hyperplasia ([2]; 12 weeks after injury): > 3%

Compound: CCCCC/C=C\C/C=C\CCCCCCCC(=O)O [linoleic acid, Octa-deca-9Z, 12Z-dienoic acid]
increase of VW 13-HODE levels [6]: 2 fold
decrease of platelet/injured VW interactions [7]: > 2 fold

Compound: CC(=O)Oc1ccccc1C(=O)O [ASA]
overall risk reduction (stroke, myocardial infarction, transient ischemic attacks) [8]: 25%

Compound: OCCN(CCO)c1nc(N2CCCCC2)c2nc(N(CCO)CCO)nc(N3CCCCC3)c2n1 [Persantine, dipyridamole]
decrease of platelet/injured VW interactions [9]: > 2 fold
SMC hyperplasia (intimal SMC hyperplasia; 1 mg/kg/day for 7 days before injury, 4 weeks after VW injury): inhibited
platelet function (intimal SMC hyperplasia; 1 mg/kg/day for 7 days): unchanged
increase of VW 13-HODE [10]: 30 to 50%

Compound: CCCCC/C=C\C=C\C(O)CCCCCCCC(=O)O (stereo not shown) [9-HODE, 9-hydroxy-10(E)12(Z) octadecadienoic acid]
minimum effective dose for inhibition of tumour growth rate (Sarcoma 180 tumors): 55 mg/kg/day
